The source of these data is PMC11967795 (Advanced Science, 2025).

Assay [1] deals with T1, RhuA (rRhuA; R. anatipestifer haemin uptake protein A) (Riemerella anatipestifer, UniProt J9QZE1).
T1 construct: gene B739_1417; recombinant
T1 sequence (J9QZE1 17-210): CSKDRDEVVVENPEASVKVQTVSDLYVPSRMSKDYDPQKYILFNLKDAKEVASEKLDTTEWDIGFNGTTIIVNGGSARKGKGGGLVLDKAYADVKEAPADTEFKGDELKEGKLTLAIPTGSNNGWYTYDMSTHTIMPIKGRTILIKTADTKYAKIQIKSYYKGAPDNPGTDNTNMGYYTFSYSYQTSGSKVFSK
Put plainly: SDS-PAGE and ECL detection of bound haemin. It counts as binding. As to conditions: positive control.

Assay [2] addresses recombinant RhuH protein (R. anatipestifer haem uptake protein haemophore), mature, without signal peptide (Riemerella anatipestifer CH-1). Kind of assay: SEC; purified recombinant apo RhuH on size exclusion chromatography; elution compared with the 35 kDa of the sequence. On the technique in general: In gel filtration, larger molecules generally elute earlier.

Regarding `C=CC1=C(C)C2=Cc3c(C=C)c(C)c4[n]3[Fe]([Cl])[n]3c(c(C)c(CCC(=O)O)c3=CC3=NC(=C4)C(C)=C3CCC(=O)O)=CC1=N2` [haemin], in assay [1], the “SDS-PAGE and ECL detection of bound haemin” value is “haemin signal was detected in the haem binding protein rRhuA (positive control) incubated with haemin”. One may read the stoichiometry N as the number of molecules, sites or subunits per partner or assembly. In the case of “recombinant RhuH protein (R. anatipestifer haem uptake protein haemophore), mature, without signal peptide (natural protein)”, the stoichiometry N in assay [2] stood at 2.
